# US11718604B2, “4-amino-6-(1,3-benzodioxole)picolinates and their use as herbicides” (Dow AgroSciences LLC, priority 2018, dated 2023)
# What was measured:
# Format in all cases: in vivo
# [1] = test system: DIGSA: large crabgrass (Digitaria sanguinalis); assay: Post-emergent herbicidal test, large crabgrass; conditions: post-emergence, 336 h, 14 days after application, read-out: Visual Growth Reduction (%) 14 Days After Application DIGSA; for pest or weed control at 17.5 g/ha: 17.5 g ai/ha; for pest or weed control at 35 g/ha: 35 g ai/ha; for pest or weed control at 70 g/ha: 70 g ai/ha; for pest or weed control at 140 g/ha: 140 g ai/ha
# Method in brief: (§1)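 Greenhouse-grown plants at the first or second true leaf stage (7-21 d, ~15 h photoperiod, 23-29° C day) were sprayed overhead at 187 L/ha with compound in acetone/DMSO-based spray solution containing crop oil concentrate and surfactant. Injury was scored visually after 14 d, 0-100% versus untreated plants.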
# [2] = test system: IPOHE: ivyleaf morningglory (Ipomoea hederacea); assay: Post-emergent herbicidal test, ivyleaf morningglory; conditions: post-emergence, 336 h, 14 days after application, read-out: Visual Growth Reduction (%) 14 Days After Application IPOHE; for pest or weed control at 17.5 g/ha: 17.5 g ai/ha; for pest or weed control at 35 g/ha: 35 g ai/ha; for pest or weed control at 70 g/ha: 70 g ai/ha; for pest or weed control at 140 g/ha: 140 g ai/ha
# Method in brief: as §1
# [3] = test system: ECHCG: barnyardgrass (Echinochloa crus-galli); assay: Post-emergent herbicidal test, barnyardgrass; conditions: post-emergence, 336 h, 14 days after application, read-out: Visual Growth Reduction (%) 14 Days After Application ECHCG; for pest or weed control at 17.5 g/ha: 17.5 g ai/ha; for pest or weed control at 35 g/ha: 35 g ai/ha; for pest or weed control at 70 g/ha: 70 g ai/ha; for pest or weed control at 140 g/ha: 140 g ai/ha
# Method in brief: as §1
# [4] = test system: ABUTH: velvetleaf (Abutilon theophrasti); assay: Post-emergent herbicidal test, velvetleaf; conditions: post-emergence, 336 h, 14 days after application, read-out: Visual Growth Reduction (%) 14 Days After Application ABUTH; for pest or weed control at 17.5 g/ha: 17.5 g ai/ha; for pest or weed control at 35 g/ha: 35 g ai/ha; for pest or weed control at 70 g/ha: 70 g ai/ha; for pest or weed control at 140 g/ha: 140 g ai/ha
# Method in brief: as §1
# [5] = test system: CYPES: yellow nutsedge (Cyperus esculentus); assay: Post-emergent herbicidal test, yellow nutsedge; conditions: post-emergence, 336 h, 14 days after application, read-out: Visual Growth Reduction (%) 14 Days After Application CYPES; for pest or weed control at 17.5 g/ha: 17.5 g ai/ha; for pest or weed control at 35 g/ha: 35 g ai/ha; for pest or weed control at 70 g/ha: 70 g ai/ha; for pest or weed control at 140 g/ha: 140 g ai/ha
# Method in brief: as §1
# [6] = test system: CIRAR: Canada thistle (Cirsium arvense); assay: Post-emergent herbicidal test, Canada thistle; conditions: post-emergence, 336 h, 14 days after application, read-out: Visual Growth Reduction (%) 14 Days After Application CIRAR; for pest or weed control at 17.5 g/ha: 17.5 g ai/ha; for pest or weed control at 35 g/ha: 35 g ai/ha; for pest or weed control at 70 g/ha: 70 g ai/ha; for pest or weed control at 140 g/ha: 140 g ai/ha
# Method in brief: as §1
# [7] = test system: SETFA: giant foxtail (Setaria faberi); assay: Post-emergent herbicidal test, giant foxtail; conditions: post-emergence, 336 h, 14 days after application, read-out: Visual Growth Reduction (%) 14 Days After Application SETFA; for pest or weed control at 17.5 g/ha: 17.5 g ai/ha; for pest or weed control at 35 g/ha: 35 g ai/ha; for pest or weed control at 70 g/ha: 70 g ai/ha; for pest or weed control at 140 g/ha: 140 g ai/ha
# Method in brief: as §1
# [8] = test system: VIOTR: wild violet (Viola tricolor); assay: Post-emergent herbicidal test, wild violet; conditions: post-emergence, 336 h, 14 days after application, read-out: Visual Growth Reduction (%) 14 Days After Application VIOTR; for pest or weed control at 17.5 g/ha: 17.5 g ai/ha; for pest or weed control at 35 g/ha: 35 g ai/ha; for pest or weed control at 70 g/ha: 70 g ai/ha; for pest or weed control at 140 g/ha: 140 g ai/ha
# Method in brief: as §1
# [9] = test system: EPHHL: wild poinsettia (Euphorbia heterophylla); assay: Post-emergent herbicidal test, wild poinsettia; conditions: post-emergence, 336 h, 14 days after application, read-out: Visual Growth Reduction (%) 14 Days After Application EPHHL; for pest or weed control at 17.5 g/ha: 17.5 g ai/ha; for pest or weed control at 35 g/ha: 35 g ai/ha; for pest or weed control at 70 g/ha: 70 g ai/ha; for pest or weed control at 140 g/ha: 140 g ai/ha
# Method in brief: as §1
# [10] = test system: BRSNN: oilseed rape, canola (Brassica napus); assay: Post-emergent herbicidal test, oilseed rape; conditions: post-emergence, 336 h, 14 days after application, read-out: Visual Growth Reduction (%) 14 Days After Application BRSNN; for pest or weed control at 17.5 g/ha: 17.5 g ai/ha; for pest or weed control at 35 g/ha: 35 g ai/ha; for pest or weed control at 70 g/ha: 70 g ai/ha; for pest or weed control at 140 g/ha: 140 g ai/ha
# Method in brief: as §1
# [11] = test system: SORVU: shattercane (Sorghum bicolor); assay: Post-emergent herbicidal test, shattercane; conditions: post-emergence, 336 h, 14 days after application, read-out: Visual Growth Reduction (%) 14 Days After Application SORVU; for pest or weed control at 17.5 g/ha: 17.5 g ai/ha; for pest or weed control at 35 g/ha: 35 g ai/ha; for pest or weed control at 70 g/ha: 70 g ai/ha; for pest or weed control at 140 g/ha: 140 g ai/ha
# Method in brief: as §1
smiles,measurement,setting,value
Nc1c(F)c(-c2ccc(I)c3c2OC(F)(F)O3)nc(C(=O)O)c1Cl [Compound 12],pest or weed control at 17.5 g/ha,[1],0%
same,pest or weed control at 35 g/ha,[1],0%
same,pest or weed control at 70 g/ha,[1],0%
same,pest or weed control at 140 g/ha,[1],0%
same,pest or weed control at 17.5 g/ha,[2],0%
same,pest or weed control at 35 g/ha,[2],0%
same,pest or weed control at 70 g/ha,[2],0%
same,pest or weed control at 140 g/ha,[2],0%
same,pest or weed control at 17.5 g/ha,[3],0%
same,pest or weed control at 35 g/ha,[3],0%
same,pest or weed control at 70 g/ha,[3],0%
same,pest or weed control at 140 g/ha,[3],0%
same,pest or weed control at 17.5 g/ha,[4],0%
same,pest or weed control at 35 g/ha,[4],0%
same,pest or weed control at 70 g/ha,[4],70%
same,pest or weed control at 140 g/ha,[4],80%
same,pest or weed control at 17.5 g/ha,[5],0%
same,pest or weed control at 35 g/ha,[5],0%
same,pest or weed control at 70 g/ha,[5],0%
same,pest or weed control at 140 g/ha,[5],0%
same,pest or weed control at 17.5 g/ha,[6],65%
same,pest or weed control at 35 g/ha,[6],80%
same,pest or weed control at 70 g/ha,[6],85%
same,pest or weed control at 140 g/ha,[6],85%
same,pest or weed control at 17.5 g/ha,[7],0%
same,pest or weed control at 35 g/ha,[7],0%
same,pest or weed control at 70 g/ha,[7],0%
same,pest or weed control at 140 g/ha,[7],0%
same,pest or weed control at 17.5 g/ha,[8],0%
same,pest or weed control at 35 g/ha,[8],0%
same,pest or weed control at 70 g/ha,[8],0%
same,pest or weed control at 140 g/ha,[8],0%
same,pest or weed control at 17.5 g/ha,[9],0%
same,pest or weed control at 35 g/ha,[9],0%
same,pest or weed control at 70 g/ha,[9],0%
same,pest or weed control at 140 g/ha,[9],0%
same,pest or weed control at 17.5 g/ha,[10],70%
same,pest or weed control at 35 g/ha,[10],80%
same,pest or weed control at 70 g/ha,[10],90%
same,pest or weed control at 140 g/ha,[10],100%
same,pest or weed control at 17.5 g/ha,[11],0%
same,pest or weed control at 35 g/ha,[11],0%
same,pest or weed control at 70 g/ha,[11],0%
same,pest or weed control at 140 g/ha,[11],0%
Nc1c(F)c(-c2ccc(Br)c3c2OC(F)(F)O3)nc(C(=O)O)c1Cl [Compound 11],pest or weed control at 17.5 g/ha,[1],0%
same,pest or weed control at 35 g/ha,[1],0%
same,pest or weed control at 70 g/ha,[1],0%
same,pest or weed control at 140 g/ha,[1],0%
same,pest or weed control at 17.5 g/ha,[2],0%
same,pest or weed control at 35 g/ha,[2],0%
same,pest or weed control at 70 g/ha,[2],0%
same,pest or weed control at 140 g/ha,[2],0%
same,pest or weed control at 17.5 g/ha,[3],0%
same,pest or weed control at 35 g/ha,[3],0%
same,pest or weed control at 70 g/ha,[3],0%
same,pest or weed control at 140 g/ha,[3],0%
same,pest or weed control at 17.5 g/ha,[4],50%
same,pest or weed control at 35 g/ha,[4],70%
same,pest or weed control at 70 g/ha,[4],80%
same,pest or weed control at 140 g/ha,[4],85%
same,pest or weed control at 17.5 g/ha,[5],0%
same,pest or weed control at 35 g/ha,[5],0%
same,pest or weed control at 70 g/ha,[5],0%
same,pest or weed control at 140 g/ha,[5],0%
same,pest or weed control at 17.5 g/ha,[6],80%
same,pest or weed control at 35 g/ha,[6],85%
same,pest or weed control at 70 g/ha,[6],90%
same,pest or weed control at 140 g/ha,[6],90%
same,pest or weed control at 17.5 g/ha,[7],0%
same,pest or weed control at 35 g/ha,[7],0%
same,pest or weed control at 70 g/ha,[7],0%
same,pest or weed control at 140 g/ha,[7],0%
same,pest or weed control at 17.5 g/ha,[8],0%
same,pest or weed control at 35 g/ha,[8],0%
same,pest or weed control at 70 g/ha,[8],0%
same,pest or weed control at 140 g/ha,[8],20%
same,pest or weed control at 17.5 g/ha,[9],0%
same,pest or weed control at 35 g/ha,[9],0%
same,pest or weed control at 70 g/ha,[9],0%
same,pest or weed control at 140 g/ha,[9],0%
same,pest or weed control at 17.5 g/ha,[10],90%
same,pest or weed control at 35 g/ha,[10],90%
same,pest or weed control at 70 g/ha,[10],90%
same,pest or weed control at 140 g/ha,[10],90%
same,pest or weed control at 17.5 g/ha,[11],0%
same,pest or weed control at 35 g/ha,[11],0%
same,pest or weed control at 70 g/ha,[11],0%
same,pest or weed control at 140 g/ha,[11],10%
